This note sets out measurements from PubChem BioAssay (NCI).

Some test systems named below: SF-539 CNS; SF-295 CNS; NCI-H226 lung; PC-3 prostate; HCT-116 colon; LOX IMVI melanoma; OVCAR-5 ovarian; UACC-257 melanoma; U251 CNS; HOP-92 NSCLC.
Experiment in all cases: NCI-60 cell line screen, 48 h

Several values for one entry are separate records, joined by “and”; a condition that tells them apart may be missing. Equal values may be shown once.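 Assay format: 96-well plates, 48-hour exposure. At the GI50, growth is halved. TGI: total growth inhibition.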 Some results are limits rather than exact numbers.

Regarding `S=C1Cc2c(-c3ccc(Br)cc3)cc(-c3ccccc3)nc2-c2ccccc2N1`, the TGI amounted to 12.2 µM in the assay on SF-539 CNS; 5.4 µM with SF-295 CNS; 8.54 µM in the assay on NCI-H226 lung; 23.3 µM in the assay on PC-3 prostate; 5.38 µM with HCT-116 colon; 12.6 µM in the assay with LOX IMVI melanoma. Also, the TGI in the assay with OVCAR-5 ovarian came to 14.4 µM; with UACC-257 melanoma, 9.74 µM; in the assay with U251 CNS, 2.58 µM; in the assay with HOP-92 NSCLC it was 4.41 µM.

Take `CN(C)CC1CC/C(=C\c2ccc3c(c2)OCO3)C1=O` (configuration not stated): the TGI in the assay with SF-539 CNS was 31 µM; with SF-295 CNS, 56.8 µM; in the assay on NCI-H226 lung, 50.6 µM; with PC-3 prostate, 27.1 µM; with HCT-116 colon it was 18.6 µM; in the assay on LOX IMVI melanoma, 3.72 µM. Besides, the TGI with OVCAR-5 ovarian was 39.3 µM; in the assay on UACC-257 melanoma, 20.1 µM; with U251 CNS it was 36.1 µM; in the assay on HOP-92 NSCLC it was 33.1 µM.

As to `CC(C)OC(=S)Nc1ccc(Cl)c(/C=N/OC(C)(C)C)c1`, the TGI in the assay on SF-539 CNS stood at 31.7 µM; with SF-295 CNS it was 18.6 µM; with NCI-H226 lung it was 34.2 µM; in the assay with PC-3 prostate, 38.1 µM; in the assay with HCT-116 colon, 29.9 µM; with LOX IMVI melanoma it was 34.3 µM. Moreover, the TGI in the assay with OVCAR-5 ovarian was 30.8 µM; with UACC-257 melanoma, 37.4 µM; in the assay on U251 CNS it was 31.7 µM; in the assay on HOP-92 NSCLC, 25.5 µM.

Consider `COc1ccc(-c2cncn2-c2cc(OC)c(OC)c(OC)c2)cc1`, for which the GI50 was 0.0671 µM in the assay with SF-539 CNS; 0.0311 µM with SF-295 CNS; 1.97 µM in the assay with NCI-H226 lung; 0.552 µM in the assay on PC-3 prostate; 0.857 µM with LOX IMVI melanoma; 0.318 µM in the assay on OVCAR-5 ovarian. The GI50 is 6.73 µM in the assay with UACC-257 melanoma, 0.412 µM in the assay on U251 CNS and 3.3 µM with HOP-92 NSCLC. Besides, the TGI with SF-539 CNS is 0.46 µM; in the assay on SF-295 CNS, above 14.8 µM; in the assay with NCI-H226 lung, 82.6 µM; in the assay on PC-3 prostate, above 40 µM; in the assay with HCT-116 colon, 4.78 µM; in the assay on LOX IMVI melanoma, above 80.9 µM. Besides, the TGI with OVCAR-5 ovarian was above 100 µM; in the assay with UACC-257 melanoma, above 86.9 µM; in the assay with U251 CNS, above 46.4 µM; in the assay with HOP-92 NSCLC, above 61 µM.

In the case of `CN=C1C=CC(=C(c2ccc(N(C)C)cc2)c2ccc(N(C)C)cc2)C=C1`, the GI50 was 0.319 µM with SF-539 CNS; 0.147 µM with SF-295 CNS; 0.286 µM with PC-3 prostate; 0.116 µM in the assay on HCT-116 colon; 0.201 µM in the assay with LOX IMVI melanoma; 0.312 µM with OVCAR-5 ovarian. The GI50 in the assay with UACC-257 melanoma was 0.249 µM; in the assay with U251 CNS, 0.0582 µM; with HOP-92 NSCLC it was 0.205 µM. Also, the TGI in the assay with SF-539 CNS stood at 1.84 µM; with SF-295 CNS it was 0.473 µM; in the assay on PC-3 prostate it was 1.09 µM; in the assay with HCT-116 colon it was 1.09 µM; in the assay on LOX IMVI melanoma it was 1.04 µM; in the assay with OVCAR-5 ovarian it was 3.43 µM. Moreover, the TGI with UACC-257 melanoma is 0.797 µM; in the assay on U251 CNS, 0.682 µM; in the assay on HOP-92 NSCLC, 0.633 µM.

`COc1ccc(-c2nc(-c3nc4ccc(C)cc4[nH]3)cc3c2[nH]c2ccccc23)cc1`: the GI50 in the assay on SF-539 CNS was 3.92 µM; in the assay on NCI-H226 lung, 4.81 µM; in the assay with PC-3 prostate, 2.74 µM; in the assay on HCT-116 colon it was 3.55 µM; in the assay with LOX IMVI melanoma, 3.34 µM; in the assay with OVCAR-5 ovarian, 6.83 µM. The values for the GI50 in the assay with UACC-257 melanoma, in the assay on U251 CNS and in the assay on HOP-92 NSCLC were 3.94 µM, 3.42 µM and 2.17 µM, respectively. Moreover, the TGI in the assay on SF-539 CNS is above 100 µM; in the assay with NCI-H226 lung it was 58.7 µM; in the assay on PC-3 prostate, above 100 µM; in the assay with HCT-116 colon, 40.6 µM; in the assay on LOX IMVI melanoma, 17.1 µM; in the assay on OVCAR-5 ovarian, above 100 µM. Besides, the TGI in the assay on UACC-257 melanoma was above 100 µM; in the assay with U251 CNS, above 100 µM; in the assay with HOP-92 NSCLC it was 8.11 µM.

With `CCCCCC(O)C(O)CCC[C@H](O)[C@H]1CC[C@H]([C@H]2CC[C@H]([C@H](O)CCCCCCCCCCCCC3=C[C@H](C)OC3=O)O2)O1` (some centres not stated), the GI50 is 12.1 µM in the assay with SF-539 CNS; 5.25 µM with NCI-H226 lung; 9.15 µM in the assay on PC-3 prostate; 0.0933 µM in the assay with HCT-116 colon; 1.76 µM in the assay on LOX IMVI melanoma; 1.29 µM in the assay on UACC-257 melanoma. In addition, the GI50 with U251 CNS is 8.47 µM. For the same molecule, the TGI in the assay with SF-539 CNS was 37 µM; with NCI-H226 lung it was 35.9 µM; in the assay with PC-3 prostate it was 25.4 µM; with HCT-116 colon, 38.7 µM; in the assay with LOX IMVI melanoma, 2.93 µM and 14.4 µM; in the assay with OVCAR-5 ovarian it was 35.4 µM. For the same molecule, the TGI was 8.7 µM and 18.6 µM in the assay with UACC-257 melanoma; above 100 µM in the assay on U251 CNS; 61.7 µM in the assay on HOP-92 NSCLC.

As for `Cc1ccc(-c2nc(/C=N/Nc3cc(C)nc4ccc(Cl)cc34)c(C)o2)cc1`, the GI50 in the assay on SF-539 CNS is 1.78 µM; with SF-295 CNS, 1.8 µM; in the assay with NCI-H226 lung it was 1.84 µM; with PC-3 prostate it was 2.26 µM; in the assay on HCT-116 colon, 1.79 µM; in the assay with OVCAR-5 ovarian, 1.72 µM. Moreover, the GI50 with UACC-257 melanoma was 1.71 µM; with U251 CNS, 1.83 µM; in the assay on HOP-92 NSCLC, 1.43 µM. For the same molecule, the TGI was determined as 3.29 µM with SF-539 CNS; 3.31 µM with SF-295 CNS; 3.72 µM in the assay with NCI-H226 lung; 5.65 µM in the assay with PC-3 prostate; 3.23 µM with HCT-116 colon; 3.39 µM with OVCAR-5 ovarian. Also, the TGI turned out to be 3.31 µM in the assay with UACC-257 melanoma, 3.39 µM in the assay on U251 CNS and 2.98 µM in the assay on HOP-92 NSCLC.

In the case of `O=C(Nc1ccccc1I(=O)=O)C1CCCCC1`, the GI50 with SF-539 CNS, in the assay with SF-295 CNS, in the assay on NCI-H226 lung, with PC-3 prostate, in the assay with LOX IMVI melanoma and in the assay on OVCAR-5 ovarian was above 100 µM throughout. The GI50 with UACC-257 melanoma, in the assay with U251 CNS and in the assay on HOP-92 NSCLC was above 100 µM each time. Also, the TGI with SF-539 CNS, with SF-295 CNS, with NCI-H226 lung, in the assay with PC-3 prostate, with LOX IMVI melanoma and in the assay on OVCAR-5 ovarian was above 100 µM in each case. Moreover, the TGI with UACC-257 melanoma, with U251 CNS and in the assay with HOP-92 NSCLC was above 100 µM throughout.
